# In patent US7345049B2, “Phenylalanine derivatives” (Ajinomoto Co., Inc., priority 2003, dated 2008):
# Molecular target: T1, VCAM-1/α4β1 integrin binding (Homo sapiens, UniProt P05556+P13612)
# T1 construct: Jurkat (ATCC TIB-152), known to express integrin α4β1; endogenous in cells; host or cells: Jurkat (ATCC TIB-152)
# Experiment: Assay of antagonistic activity to VCAM-1/α4β1 integrin binding under the existence of blood serum (Jurkat cell adhesion to VCAM-1/Fc)
# Type: cell-based
# Settings: Jurkat cells, recombinant human VCAM-1/Fc, 50% human blood serum
# Procedure: Assay of Antagonistic Activity to VCAM-1/α4β1 Integrin Binding Under the Existence of Blood Serum
# The capacity of a test substance antagonistic to the binding of cell strain of human T cells, Jurkat (ATCC TIB-152), known to express integrin α4β1, to VCAM-1 was determined.
# Fifty μl/well of a solution (500 ng/ml) of recombinant human VCAM-1/Fc (R & D systems) diluted with buffer A (0.1 M NaHCO3, pH 9.6) was added to a 96-well microtiter plate (Nunc Maxisorp). After the incubation at 4° C. overnight and washing once with PBS, a buffer (buffer B) obtained by diluting Block Ace (Snow Brand Milk Products Co., Ltd.) with PBS to ½ concentration was added in an amount of 150 μl/well. After the incubation at room temperature for 2 hours, buffer B was removed and the plate was washed with PBS once.
# Jurkat cells were washed with Dulbecco modified Eagle medium (SIGMA, hereinafter referred to as “DMEM”) once. Then, the cells were again suspended in a binding buffer (DMEM containing 20 mM HEPES, 0.1% BSA, 2 mM MnCl2 and 50% human blood serum (Sigma)) to become 1×10^6 cells/mL.
# Sixty μl of a test substance of various concentrations obtained by the dilution with the binding buffer was added to a round-bottom, 96-well plate (IWAKI). Immediately thereafter, 60 μl of the Jurkat cells (1×10^6 cells/ml) were added thereto and shaken on a plate shaker (IKA-Labortechnik, IKA-SCHUTTLER MTS-4) at 1000 rpm for 10 seconds. In 120 μL of the cell suspension to which the test substance was added, each 100 μL thereof was transferred on the VCAM-1/Fc-coated plate and incubated in dark place at room temperature for 60 minutes. After the shaking on the plate shaker at 1000 rpm for 30 seconds, the solution was immediately removed. Then, the unbound cells were removed by washing them with PBS once. A buffer C (PBS containing 0.82% Triton X-100) was added to the plate in an amount of 70 μL/well. After the shaking on the plate shaker at 1000 rpm for 5 minutes, the bound Jurkat cells were lysed. After centrifuging the cells on a plate centrifuge (SIGMA 4-15C) at room temperature at 2500 rpm for 5 minutes, 50 μL of supernatant thereof was transferred to a 96-well microtiter plate (Nunc Maxisorp). Each 50 μL of Substrate Buffer (Promega, CytoTox 96 Non-Radioactive Cytotoxicity Assay) was added thereto, shaken on a plate shaker at 1000 rpm for 10 seconds and reacted in dark place at room temperature for 30 minutes. Then, each 50 μL of Stop Solution (Promega, CytoTox 96 Non-Radioactive Cytotoxicity Assay) was added thereto and shaken on a plate shaker at 1000 rpm for 10 seconds. […] The absorbance thus obtained detects an activity of lactate dehydrogenase (LDH) dissolved in the supernatant of each well. Namely, the absorbance is proportional to the number of remaining Jurkat cells on the plate via the binding to VCAM-1. The test was conducted in duplicate and the binding rate of each test substance in various concentrations was determined while the absorbance of the test substance-free well was determined to be 100% and the absorbance of the Jurkat-cell-free well was determined to be 0%. The concentration for the 50% inhibition of binding, IC50, was calculated.
# T1 sequence (P13612 34-1032): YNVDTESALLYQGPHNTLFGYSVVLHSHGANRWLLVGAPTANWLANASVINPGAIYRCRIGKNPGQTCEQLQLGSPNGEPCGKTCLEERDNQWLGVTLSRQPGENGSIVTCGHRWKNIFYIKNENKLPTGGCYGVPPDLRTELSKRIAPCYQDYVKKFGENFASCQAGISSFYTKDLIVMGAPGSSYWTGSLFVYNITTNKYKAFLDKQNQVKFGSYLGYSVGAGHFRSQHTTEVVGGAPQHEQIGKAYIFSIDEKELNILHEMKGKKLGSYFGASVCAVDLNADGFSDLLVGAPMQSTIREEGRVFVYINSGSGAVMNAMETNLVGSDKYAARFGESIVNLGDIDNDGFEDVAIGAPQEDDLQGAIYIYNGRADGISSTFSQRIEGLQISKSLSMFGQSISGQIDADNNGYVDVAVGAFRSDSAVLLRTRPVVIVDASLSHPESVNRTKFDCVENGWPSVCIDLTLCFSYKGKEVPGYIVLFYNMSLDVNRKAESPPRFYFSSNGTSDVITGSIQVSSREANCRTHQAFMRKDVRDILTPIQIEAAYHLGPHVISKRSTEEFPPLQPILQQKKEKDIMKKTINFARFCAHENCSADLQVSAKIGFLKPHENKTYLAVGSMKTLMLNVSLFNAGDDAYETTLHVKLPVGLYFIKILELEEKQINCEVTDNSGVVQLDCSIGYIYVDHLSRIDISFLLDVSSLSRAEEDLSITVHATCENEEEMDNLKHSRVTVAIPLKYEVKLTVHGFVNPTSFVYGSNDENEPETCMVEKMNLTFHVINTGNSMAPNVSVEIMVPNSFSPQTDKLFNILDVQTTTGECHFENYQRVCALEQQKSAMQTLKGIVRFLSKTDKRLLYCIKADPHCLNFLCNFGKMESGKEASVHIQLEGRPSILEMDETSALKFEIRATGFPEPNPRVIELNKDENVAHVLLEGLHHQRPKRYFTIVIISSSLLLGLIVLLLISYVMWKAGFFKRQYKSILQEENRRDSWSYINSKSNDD
# T1 sequence (P05556 21-798): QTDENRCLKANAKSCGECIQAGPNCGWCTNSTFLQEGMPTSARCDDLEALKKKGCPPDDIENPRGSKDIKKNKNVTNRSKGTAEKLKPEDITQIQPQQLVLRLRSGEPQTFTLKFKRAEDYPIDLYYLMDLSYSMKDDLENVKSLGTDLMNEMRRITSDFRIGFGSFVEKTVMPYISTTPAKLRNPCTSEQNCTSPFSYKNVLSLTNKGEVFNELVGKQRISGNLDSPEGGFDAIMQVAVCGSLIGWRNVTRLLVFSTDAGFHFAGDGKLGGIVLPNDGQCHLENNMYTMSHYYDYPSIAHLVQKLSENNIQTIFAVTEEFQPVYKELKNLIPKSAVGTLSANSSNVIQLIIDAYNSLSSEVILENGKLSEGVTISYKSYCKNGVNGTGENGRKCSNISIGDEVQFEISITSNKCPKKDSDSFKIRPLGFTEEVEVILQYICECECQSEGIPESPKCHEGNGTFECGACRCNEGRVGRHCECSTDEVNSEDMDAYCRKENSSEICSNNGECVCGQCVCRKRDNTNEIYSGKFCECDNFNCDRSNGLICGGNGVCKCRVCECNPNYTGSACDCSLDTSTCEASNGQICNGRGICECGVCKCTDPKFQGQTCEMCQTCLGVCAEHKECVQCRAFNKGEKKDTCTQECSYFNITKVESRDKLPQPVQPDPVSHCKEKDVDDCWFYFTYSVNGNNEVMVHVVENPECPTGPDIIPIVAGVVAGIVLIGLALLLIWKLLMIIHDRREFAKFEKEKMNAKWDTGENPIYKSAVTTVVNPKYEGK
row,IC50,Compound
1,10.8 nM,COCc1ccc2c(=O)n(-c3ccc(C[C@H](NC(=O)c4c(Cl)cccc4Cl)C(=O)O)cc3)c(=O)n(C)c2c1 [Example 63]
2,12.3 nM,Cn1c(=O)n(-c2ccc(C[C@H](NC(=O)c3c(Cl)cccc3Cl)C(=O)O)cc2)c(=O)c2cnccc21 [Example 64]
3,18.1 nM,CCCNCc1ccc2c(c1)c(=O)n(-c1ccc(C[C@H](NC(=O)c3c(Cl)cccc3Cl)C(=O)O)cc1)c(=O)n2C [Example 98]
4,8.4 nM,"CCN(C)c1ccc2c(c1)c(=O)n(-c1ccc(C[C@H](NC(=O)c3c(Cl)cccc3Cl)C(=O)O)cc1)c(=O)n2C [Example 139, N-(2,6-dichlorobenzoyl)-4-[6-ethylmethylamino-1-methyl-2,4-quinazoline-dione-3-yl]-L-phenylalanine]"
5,14.7 nM,"CN(C)CCOc1ccc2c(c1)c(=O)n(-c1ccc(C[C@H](NC(=O)c3c(Cl)cccc3Cl)C(=O)O)cc1)c(=O)n2C [Example 142, N-(2,6-dichlorobenzoyl)-4-[6-(2-dimethylaminoethoxy)-1-methyl-2,4-quinazoline-dione-3-yl]-L-phenylalanine]"
6,7 nM,"CCNCc1ccc2c(=O)n(-c3ccc(C[C@H](NC(=O)c4c(Cl)cccc4Cl)C(=O)O)cc3)c(=O)n(C)c2c1 [Example 143, N-(2,6-dichlorobenzoyl)-4-[7-ethylaminomethyl-1-methyl-2,4-quinazoline-dione-3-yl]-L-phenylalanine]"
7,4.9 nM,"CNCc1ccc2c(=O)n(-c3ccc(C[C@H](NC(=O)c4c(Cl)cccc4Cl)C(=O)O)cc3)c(=O)n(C)c2c1 [Example 144, N-(2,6-dichlorobenzoyl)-4-[7-methylaminomethyl-1-methyl-2,4-quinazoline-dione-3-yl]-L-phenylalanine]"
8,3.8 nM,"CCCNCc1ccc2c(=O)n(-c3ccc(C[C@H](NC(=O)c4c(Cl)cccc4Cl)C(=O)O)cc3)c(=O)n(C)c2c1 [Example 145, N-(2,6-dichlorobenzoyl)-4-[1-methyl-7-propylaminomethyl-2,4-quinazoline-dione-3-yl]-L-phenylalanine]"
9,7.9 nM,"CCN(CC)Cc1ccc2c(=O)n(-c3ccc(C[C@H](NC(=O)c4c(Cl)cccc4Cl)C(=O)O)cc3)c(=O)n(C)c2c1 [Example 146, N-(2,6-dichlorobenzoyl)-4-[1-methyl-7-diethylaminomethyl-2,4-quinazoline-dione-3-yl]-L-phenylalanine]"
10,9.4 nM,Cc1nccn1-c1cc2c(cc1F)c(=O)n(-c1ccc(C[C@H](NC(=O)c3c(Cl)cccc3Cl)C(=O)O)cc1)c(=O)n2C [Example 160]
11,16.5 nM,CCc1nccn1-c1cc2c(cc1F)c(=O)n(-c1ccc(C[C@H](NC(=O)c3c(Cl)cccc3Cl)C(=O)O)cc1)c(=O)n2C [Example 161]
12,12.9 nM,Cn1c(=O)n(-c2ccc(C[C@H](NC(=O)c3c(Cl)cccc3Cl)C(=O)O)cc2)c(=O)c2cc(CN)ccc21 [Example 191]
13,17.9 nM,Cn1c(=O)n(-c2ccc(C[C@H](NC(=O)c3c(Cl)cccc3Cl)C(=O)O)cc2)c(=O)c2cc(CNC3CC3)ccc21 [Example 192]
14,6.9 nM,CC(C)NCc1ccc2c(c1)c(=O)n(-c1ccc(C[C@H](NC(=O)c3c(Cl)cccc3Cl)C(=O)O)cc1)c(=O)n2C [Example 194]
15,5.3 nM,CC(C)CCNCc1ccc2c(c1)c(=O)n(-c1ccc(C[C@H](NC(=O)c3c(Cl)cccc3Cl)C(=O)O)cc1)c(=O)n2C [Example 196]
16,6.3 nM,Cn1c(=O)n(-c2ccc(C[C@H](NC(=O)c3c(Cl)cccc3Cl)C(=O)O)cc2)c(=O)c2cc(CNCC3CC3)ccc21 [Example 197]
17,5.7 nM,CCC(C)NCc1ccc2c(c1)c(=O)n(-c1ccc(C[C@H](NC(=O)c3c(Cl)cccc3Cl)C(=O)O)cc1)c(=O)n2C (stereo partly shown) [Example 198]
18,18 nM,CC(C)N(C)Cc1ccc2c(c1)c(=O)n(-c1ccc(C[C@H](NC(=O)c3c(Cl)cccc3Cl)C(=O)O)cc1)c(=O)n2C [Example 199]
19,13.4 nM,CCNCCCc1ccc2c(c1)c(=O)n(-c1ccc(C[C@H](NC(=O)c3c(Cl)cccc3Cl)C(=O)O)cc1)c(=O)n2C [Example 208]
20,15.2 nM,CCCNCCCc1ccc2c(c1)c(=O)n(-c1ccc(C[C@H](NC(=O)c3c(Cl)cccc3Cl)C(=O)O)cc1)c(=O)n2C [Example 209]
21,9.2 nM,CNCCCOc1ccc2c(c1)c(=O)n(-c1ccc(C[C@H](NC(=O)c3c(Cl)cccc3Cl)C(=O)O)cc1)c(=O)n2C [Example 226]
22,14.7 nM,"CNCCc1cc2c(=O)n(-c3ccc(C[C@H](NC(=O)c4c(Cl)cccc4Cl)C(=O)O)cc3)c(=O)n(C)c2cc1F [Example 229, N-(2,6-dichlorobenzoyl)-4-{7-fluoro-1-methyl-6-[2-(methylamino)ethyl]-2,4-dioxo-1,2,3,4-tetrahydroquinazoline-3(2H)-yl}-L-phenylalanine]"
23,11.7 nM,"CNCCc1ccc2c(c1)c(=O)n(-c1ccc(C[C@H](NC(=O)c3c(Cl)cccc3Cl)C(=O)O)cc1)c(=O)n2C [Example 230, N-(2,6-dichlorobenzoyl)-4-{1-methyl-6-[2-(methylamino)ethyl]-2,4-dioxo-1,2,3,4-tetrahydroquinazoline-3(2H)-yl}-L-phenylalanine]"
24,12.2 nM,"N-(2,6-dichlorobenzoyl)-4-[6-((2S)-2-aminopropoxy)-1-methyl-2,4-quinazoline-dione-3-yl]-L-phenylalanine isopropylester [Example 141]"

# Tested on: lymphocytes in the peripheral blood
# Experiment: Activity to elevate the number of lymphocytes in the peripheral blood in a rat
# Type: in vivo, male Wistar rat
# Settings: oral, 3 mg/kg, 1 hour later, criterion 195% or more of vehicle group
# Procedure: Activity to Elevate the Number of Lymphocytes in the Peripheral Blood in a Rat
# The activity of the compounds of the present invention to elevate the number of lymphocytes in the rat was examined.
# A dosing solution was prepared by dissolving the compounds of the present invention to dimethylsulfoxide, adding the mixed solution of polyethylene glycol 400: propylene glycol=1:1 and turning it upside and down repeatedly. The final concentration of DMSO was adjusted to become 2.5%.
# The dosing solution of a test substance (3 mg/kg, 10 mg/kg or 30 mg/kg) was orally administered to a male Wistar rat (6 to 8 weeks age) in an amount of 4 mL/kg. After the settled time points after the administration, the blood was drawn from its abdominal large vein under anesthesia and stirred in a EDTA-2K coated container for blood collection. Then, the number of lymphocytes in the peripheral blood was determined by an automated comprehensive hematology analyzer (SF-3000, Sysmex). The test was executed in n=5, and the ratio (%) of the number of lymphocytes in the peripheral blood in a test-substance-administered group to that in a vehicle-treated group (a control group) was calculated while the average value of the number of lymphocytes in the peripheral blood in a control group was determined to be 100%.
row,Compound,"Elevation of lymphocytes in the peripheral blood, pass/failure"
1,"COC(=O)[C@H](Cc1ccc(-n2c(=O)c3cncnc3n(C)c2=O)cc1)NC(=O)c1c(Cl)cccc1Cl [Example 129, N-(2,6-dichlorobenzoyl)-4-(1-methyl-2,4-dioxo-1,2,3,4-tetrahydropyrimido[4,5-d]pyrimidine-3(2H)-yl)-L-phenylalanine methylester]",◯ (pass (criterion measure or more))

# Same assay, conditions: oral, 10 mg/kg, 6 hours later, criterion 150% or more of vehicle group
row,Compound,"Elevation of lymphocytes in the peripheral blood, pass/failure"
1,"CCNCc1ccc2c(=O)n(-c3ccc(C[C@H](NC(=O)c4c(Cl)cccc4Cl)C(=O)OC(C)C)cc3)c(=O)n(C)c2c1 [Example 156, N-(2,6-dichlorobenzoyl)-4-[7-ethylaminomethyl-1-methyl-2,4-quinazoline-dione-3-yl]-L-phenylalanine isopropylester]",◯ (pass (criterion measure or more))
2,"CNCc1ccc2c(=O)n(-c3ccc(C[C@H](NC(=O)c4c(Cl)cccc4Cl)C(=O)OC4CCCC4)cc3)c(=O)n(C)c2c1 [Example 157, N-(2,6-dichlorobenzoyl)-4-[7-methylaminomethyl-1-methyl-2,4-quinazoline-dione-3-yl]-L-phenylalanine cyclopentylester]",◯ (pass (criterion measure or more))

# Same assay, conditions: oral, 30 mg/kg, 12 hours later, criterion 150% or more of vehicle group
row,Compound,"Elevation of lymphocytes in the peripheral blood, pass/failure"
1,"CC(C)OC(=O)[C@H](Cc1ccc(-n2c(=O)c3cc(OCCN(C)C)ccc3n(C)c2=O)cc1)NC(=O)c1c(Cl)cccc1Cl [Example 155, N-(2,6-dichlorobenzoyl)-4-[6-(2-dimethylaminoethoxy)-1-methyl-2,4-quinazoline-dione-3-yl]-L-phenylalanine isopropylester]",◯ (pass (criterion measure or more))
